In paper PMC11879040, “Advancing systemic toxicity risk assessment: Evaluation of a NAM-based toolbox approach” (Toxicological Sciences, 2024):
Where two headings read alike, the source gives them in different places.

Tests used:
[1] = test system: Thyroid hormone receptor alpha, THRA (h); test: IPP THRA coactivator recruitment (agonist); format: biochemical, human; conditions: 100 uM; agonist; T3; * denotes assay interference (2-Amino-6-chloro-4-nitrophenol, HC Red 3)
[2] = Assignment of risk classifications to benchmark chemical-exposure scenarios; conditions: for risk: from table S1
[3] = target: Voltage-dependent L-type Ca2+ channel (dihydropyridine site), CACNA1C (r) (Rattus norvegicus, UniProt P22002); format: binding
Chain of Voltage-dependent L-type Ca2+ channel (dihydropyridine site), CACNA1C (r) (P22002 whole entry): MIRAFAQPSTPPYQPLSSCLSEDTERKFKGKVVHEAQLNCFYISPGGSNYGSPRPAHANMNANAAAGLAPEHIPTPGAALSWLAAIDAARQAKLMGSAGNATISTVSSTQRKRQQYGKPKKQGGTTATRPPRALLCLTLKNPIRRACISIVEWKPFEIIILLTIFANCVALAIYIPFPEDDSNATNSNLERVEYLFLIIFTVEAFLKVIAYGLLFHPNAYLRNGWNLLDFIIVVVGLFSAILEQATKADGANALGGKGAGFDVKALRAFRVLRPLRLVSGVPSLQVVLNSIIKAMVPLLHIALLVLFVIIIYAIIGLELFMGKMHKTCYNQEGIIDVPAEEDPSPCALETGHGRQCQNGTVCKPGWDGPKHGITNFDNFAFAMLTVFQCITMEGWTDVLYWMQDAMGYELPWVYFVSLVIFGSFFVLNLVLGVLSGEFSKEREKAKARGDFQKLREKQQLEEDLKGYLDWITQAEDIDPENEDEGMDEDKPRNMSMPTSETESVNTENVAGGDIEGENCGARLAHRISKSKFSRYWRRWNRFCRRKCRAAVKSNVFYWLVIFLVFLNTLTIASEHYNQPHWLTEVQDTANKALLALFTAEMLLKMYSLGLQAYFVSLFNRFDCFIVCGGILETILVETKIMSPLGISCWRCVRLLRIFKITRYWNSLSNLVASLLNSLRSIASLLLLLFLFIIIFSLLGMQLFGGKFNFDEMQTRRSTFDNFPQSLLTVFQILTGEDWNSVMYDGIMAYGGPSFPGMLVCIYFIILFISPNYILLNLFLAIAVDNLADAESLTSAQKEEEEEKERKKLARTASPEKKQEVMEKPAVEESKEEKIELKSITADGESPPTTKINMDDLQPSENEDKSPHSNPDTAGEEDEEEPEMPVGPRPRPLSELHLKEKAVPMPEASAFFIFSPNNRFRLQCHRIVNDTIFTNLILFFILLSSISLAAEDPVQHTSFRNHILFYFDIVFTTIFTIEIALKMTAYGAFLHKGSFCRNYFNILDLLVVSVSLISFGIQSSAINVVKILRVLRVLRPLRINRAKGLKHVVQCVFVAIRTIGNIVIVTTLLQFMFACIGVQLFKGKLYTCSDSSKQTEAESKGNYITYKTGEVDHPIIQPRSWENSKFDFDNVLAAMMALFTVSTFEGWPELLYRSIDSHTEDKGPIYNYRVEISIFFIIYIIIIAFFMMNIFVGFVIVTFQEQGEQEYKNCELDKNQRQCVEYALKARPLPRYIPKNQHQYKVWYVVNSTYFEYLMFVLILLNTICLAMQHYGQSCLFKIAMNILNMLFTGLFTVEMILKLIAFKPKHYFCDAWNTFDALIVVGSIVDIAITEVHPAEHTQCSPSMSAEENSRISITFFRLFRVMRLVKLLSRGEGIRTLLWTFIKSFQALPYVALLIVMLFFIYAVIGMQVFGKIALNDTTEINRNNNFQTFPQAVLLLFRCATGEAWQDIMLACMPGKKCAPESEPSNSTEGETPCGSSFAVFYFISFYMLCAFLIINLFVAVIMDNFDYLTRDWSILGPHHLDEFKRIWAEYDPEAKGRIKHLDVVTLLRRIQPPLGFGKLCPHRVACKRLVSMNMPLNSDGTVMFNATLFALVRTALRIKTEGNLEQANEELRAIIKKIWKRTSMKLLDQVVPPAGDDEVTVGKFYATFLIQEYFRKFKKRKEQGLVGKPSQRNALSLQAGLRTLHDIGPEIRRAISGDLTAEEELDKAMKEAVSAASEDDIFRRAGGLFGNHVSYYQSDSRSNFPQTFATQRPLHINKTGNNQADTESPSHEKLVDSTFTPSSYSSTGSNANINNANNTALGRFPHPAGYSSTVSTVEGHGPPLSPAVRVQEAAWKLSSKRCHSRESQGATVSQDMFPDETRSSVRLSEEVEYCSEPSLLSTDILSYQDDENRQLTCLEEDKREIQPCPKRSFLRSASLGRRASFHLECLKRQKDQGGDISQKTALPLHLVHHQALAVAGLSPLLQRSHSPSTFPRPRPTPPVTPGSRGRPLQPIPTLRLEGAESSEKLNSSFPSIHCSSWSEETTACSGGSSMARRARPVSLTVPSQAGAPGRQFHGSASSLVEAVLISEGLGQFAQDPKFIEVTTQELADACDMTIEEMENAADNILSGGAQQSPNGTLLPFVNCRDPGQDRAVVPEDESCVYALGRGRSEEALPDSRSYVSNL

[4] = per chemical see Peff Reference, cited from earlier work
[5] = test system: Glutamate receptor ionotropic NMDA 1 non-selective, GRIN1 (r); conditions: IPP screening at 100 uM; control CGS 19755
[6] = test system: Potassium Voltage-Gated Channel Kv non-selective, KCNQ1 (r); test: IPP KCNQ1 binding (antagonist radioligand); set-up: species or system rat; conditions: IPP screening at 100 uM; control α-dendrotoxin
[7] = cited from earlier work
HepG2 cells [8] = test: Cell stress panel (CSP), 24 h, 8 concentrations, BIFROST global PoD; format: cell-based; conditions: HepG2; cell stress panel PoD
Method: Compounds were tested using the previously developed cell stress panel ([Hatherell et al. 2020]) and the expanded biomarker panel outlined in Middleton et al. HepG2 cells were treated with all compounds for 24 h across 8 concentrations prior to biomarker analysis. The same plate layout and number of replicates (3 biological and 2 technical) were used as previously for each assay within the panel.

[9] = test system: Sodium channel protein type 5 subunit alpha (site 2), SCN5A (r); format: binding, rat
[10] = test system: Gamma-aminobutyric acid receptor subunit alpha-1 BZD site, GABRA1A (r); format: binding, rat; conditions: IPP screening at 100 uM; control diazepam
HepaRG cells = test: High-throughput transcriptomics (HTTr, TempO-Seq), HepaRG, 24 h; format: cell-based, human; conditions: HepaRG; for pod_httr_bifrost PoD: HTTr BIFROST PoD; for podl_path_minbmd PoD: HTTr minimum pathway BMD(L)
Method: (§1) HepG2, HepaRG, and MCF7 cells were treated with each compound for 24 h across a dose range of 7 concentrations and lysed using TempO-Seq lysis buffer (BioSpyder Technologies, proprietary kit, see [Middleton et al. 2022] for method details). Sequencing was performed using TempO-Seq (BioClavis) version 2 of the human whole transcriptome panel and analyzed as described previously in Middleton et al.

Tubulin (r) = test: IPP Tubulin binding; set-up: species or system rat; conditions: 100 uM; ligand/control Colchicine
[11] = skin penetration (PBK input)
MCF7 cells = test: High-throughput transcriptomics (HTTr, TempO-Seq), MCF7, 24 h; format: cell-based, human; conditions: MCF-7; for pod_httr_bifrost PoD: HTTr BIFROST PoD; for podl_path_minbmd PoD: HTTr minimum pathway BMD(L)
Method: as §1

monkey = conditions: monkey; 52 weeks; ref ToxRefDB/Paul-Friedman et al. (2020)/regulatory opinions; cited from earlier work
HepG2 cells [12] = test: High-throughput transcriptomics (HTTr, TempO-Seq), HepG2, 24 h; format: cell-based, human; conditions: HepG2; for pod_httr_bifrost PoD: HTTr BIFROST PoD; for podl_path_minbmd PoD: HTTr minimum pathway BMD(L)
Method: as §1

[13] = cited from earlier work; remark: listed apart in the source
[14] = target: T1, Adenosine receptor A2a, ADORA2A (h) (Homo sapiens, UniProt P29274); test: IPP ADORA2A binding (agonist radioligand); conditions: IPP screening at 100 uM; control NECA
T1 construct: purchased Eurofins Cerep (SafetyScreen44-based IPP panel)
T1 sequence (P29274 whole entry): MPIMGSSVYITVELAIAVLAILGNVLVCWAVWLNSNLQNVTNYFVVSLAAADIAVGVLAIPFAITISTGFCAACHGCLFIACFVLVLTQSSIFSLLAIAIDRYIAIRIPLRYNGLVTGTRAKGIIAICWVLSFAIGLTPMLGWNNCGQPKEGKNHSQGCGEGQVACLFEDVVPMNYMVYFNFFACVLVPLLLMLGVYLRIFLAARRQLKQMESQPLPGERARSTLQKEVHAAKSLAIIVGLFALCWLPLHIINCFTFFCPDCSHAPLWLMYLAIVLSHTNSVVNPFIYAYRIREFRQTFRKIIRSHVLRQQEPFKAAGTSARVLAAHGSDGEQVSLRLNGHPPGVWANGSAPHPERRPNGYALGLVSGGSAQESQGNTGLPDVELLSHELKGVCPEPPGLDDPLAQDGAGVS

[15] = hepatic intrinsic clearance (Clint); conditions: PBK input, levels L2/L3; scaled from [10]
[16] = intestinal absorption (PBK input); format: in vitro ADME; conditions: levels L2/L3, converted from [36]
rat = conditions: rat; repeat dose toxicity : oral; ref ToxRefDB/Paul-Friedman et al. (2020)/regulatory opinions; cited from earlier work
[17] = test system: 63 targets with known safety liabilities; test: In vitro pharmacological profiling (IPP) panel, screening at 10 or 100 µM and dose response, minimum IC50/AC50; format: biochemical; conditions: lowest AC50 across IPP panel (systemic targets); cell_type -; read-out: ipp_lowest_ac50_systemic PoD
[18] = PBK level L2, optimised based on [21] (glutaraldehyde), [23] (HCRed3), [28] (ibuprofen)
[19] = PBK level L3, optimised based on [28]
[20] = IV 200 mg slow IV (3min), 8 healthy male, validation, ref Martin et al. 1990
[21] = IV 400 mg slow IV (3min), 8 healthy male, validation, ref Martin et al. 1990
[22] = IV 800 mg infusion over five to seven minutes, 12 healthy, calibration, ref Pavliv et al. 2011
[23] = Oral 400 mg tablet, fasted, 18 healthy elderly, validation, ref Albert et al. 1984
[24] = Oral 500 mg ibuprofen lysine tablet (equivalent to 292.6 mg ibuprofen free acid), fasted, 8 healthy male, validation, ref Martin et al. 1990
[25] = Oral 800 mg tablet, fasted, 12 healthy, calibration, ref Pavliv et al. 2011
[26] = Oral 800 mg tablet, fasted, 13 healthy, validation, ref Duxin et al. 2017
[27] = Oral 800 mg tablet, fasted, 18 healthy elderly, validation, ref Albert et al. 1984
[28] = Oral 800 mg tablet, fed, 10 healthy, validation, ref Duxin et al. 2017
[29] = Oral 1200 mg tablet, fasted, 18 healthy elderly, validation, ref Albert et al. 1984

CC(C)Cc1ccc(C(C)C(=O)O)cc1 (stereo not drawn) [Ibuprofen, 2-[4-(2-Methylpropyl)phenyl]propanoic acid]
IPP screening %, Coactivator recruitment [1]: 1.0%
risk ([2]; Dermal, 10%, Gel, Exp3): 1
risk ([2]; Oral, High therapeutic, 1200mg/day, Tablet, Exp1): 1
risk ([2]; Oral, Low therapeutic, 200mg/day, Tablet, Exp2): 1
Specific binding [3]: -14.3%
Peff ([4]; PBK level L2, ref [3],[4],[11]): 5.034 cm/s x E-04
Peff ([4]; PBK level L3, ref [4],[11]): 5.034 cm/s x E-04
Specific binding [5]: 7.2%
Specific binding [6]: -8.5%
Fup ([7]; PBK level L2, single value or median, ref [2],[4],[6],[7],[8],[10],[11],[15],[18],[27],[34]): 1.3%
Fup ([7]; PBK level L3, single value or median, ref [2],[4],[6],[7],[8],[10],[11],[15],[18],[27],[34]): 1.3%
pod_cell_stress PoD (HepG2 cells [8]): 8.518 µM
Specific binding [9]: 32.1%
Specific binding [10]: 5.3%
pod_httr_bifrost PoD (HepaRG cells): 0.1626 µM
podl_path_minbmd PoD (HepaRG cells): 8.099 µM
IPP screening %, Specific binding (Tubulin (r)): -14.0%
Diffusivity Dermis [11, 18]: 1.00E-06 cm^2/s
Diffusivity Stratum Corneum [11, 18]: 1.00E-09 cm^2/s
Diffusivity Viable Epidermis [11, 18]: 1.00E-06 cm^2/s
Partition Coefficient Stratum Corneum/Water ([11]; PBK level L2, optimised based on [21] (glutaraldehyde), [23] (HCRed3), [28] (ibuprofen), no reference printed (DEET)): 1500.00
Partition Coefficient Viable Epidermis/Water ([11]; PBK level L2, optimised based on [21] (glutaraldehyde), [28] (ibuprofen)): 700.00
Diffusivity Vehicle ([11]; PBK level L2, optimised based on [23] (HCRed3), [28] (ibuprofen)): 1.00E-05 cm^2/s
Partition Coefficient Vehicle/Water ([11]; PBK level L2, optimised based on [28]): 10.00
Diffusivity Dermis [11, 19]: 1.00E-06 cm^2/s
Diffusivity Stratum Corneum [11, 19]: 1.00E-09 cm^2/s
Diffusivity Vehicle [11, 19]: 1.00E-05 cm^2/s
Diffusivity Viable Epidermis [11, 19]: 1.00E-06 cm^2/s
Partition Coefficient Stratum Corneum/Water [11, 19]: 1500.00
Partition Coefficient Vehicle/Water [11, 19]: 10.00
Partition Coefficient Viable Epidermis/Water [11, 19]: 700.00
pod_httr_bifrost PoD (MCF7 cells): 42.8965 µM
podl_path_minbmd PoD (MCF7 cells): 150.462 µM
PoD (NOAEL) (monkey): 40 mg/kg bw/day
pod_httr_bifrost PoD (HepG2 cells [12]): 7.6781 µM
podl_path_minbmd PoD (HepG2 cells [12]): 30.2909 µM
Reported AUC0-t [13, 20]: 59.96 µg·h/mL
Reported cmax [13, 20]: 39 µg/mL
Reported AUC0-t [13, 21]: 117.4 µg·h/mL
Reported cmax [13, 21]: 79.75 µg/mL
Reported AUC0-t [13, 22]: 187.4 µg·h/mL
Reported cmax [13, 22]: 120.2 µg/mL
Reported AUC0-t [13, 23]: 128 µg·h/mL
Reported cmax [13, 23]: 32.5 µg/mL
Reported AUC0-t [13, 24]: 85.59 µg·h/mL
Reported cmax [13, 24]: 30.32 µg/mL
Reported AUC0-t [13, 25]: 187.4 µg·h/mL
Reported cmax [13, 25]: 57.3 µg/mL
Reported AUC0-t [13, 26]: 252 µg·h/mL
Reported cmax [13, 26]: 41.52 µg/mL
Reported AUC0-t [13, 27]: 236.6 µg·h/mL
Reported cmax [13, 27]: 60.2 µg/mL
Reported AUC0-t [13, 28]: 223 µg·h/mL
Reported cmax [13, 28]: 25.22 µg/mL
Reported AUC0-t [13, 29]: 279.2 µg·h/mL
Reported cmax [13, 29]: 71.1 µg/mL

CC(=O)Nc1ccc(O)cc1 [Paracetamol, N-(4-Hydroxyphenyl)acetamide]
Specific binding [14]: 6.7%
IPP screening %, Coactivator recruitment [1]: 1.0%
Risk Classification ([2]; IV 4000 mg/day): High risk
risk ([2]; IV, High therapeutic, 4g/day, Exp3): 1
Risk Classification ([2]; Oral 500 mg/day): High risk
Risk Classification ([2]; Oral 4000 mg/day): High risk
risk ([2]; Oral, High therapeutic, 4000mg/day, Tablet, Exp1): 1
risk ([2]; Oral, Low therapeutic, 500mg/day, Tablet, Exp2): 1
Specific binding [5]: -4.2%
Specific binding [6]: -3.6%
Fup ([7]; PBK input, level L2, ref [10]): 100%
pod_cell_stress PoD (HepG2 cells [8]): 40.132 µM
Intrinsic Liver Clearance [15]: 10.79 L/h
Specific binding [9]: 34.9%
Specific binding [10]: 8.7%
Peff [16]: 3.56 cm/s x E-04
PoD (LOEL) (rat): 30 mg/kg bw/day
pod_httr_bifrost PoD (HepaRG cells): 76.0572 µM
podl_path_minbmd PoD (HepaRG cells): 322.442 µM
IPP screening %, Specific binding (Tubulin (r)): -2%
pod_httr_bifrost PoD (MCF7 cells): 4.261 µM
podl_path_minbmd PoD (MCF7 cells): 184.341 µM
pod_httr_bifrost PoD (HepG2 cells [12]): 9.465 µM
podl_path_minbmd PoD (HepG2 cells [12]): 262.202 µM
AC50 [17]: 39.1 µM
